# Measured values published in patent publication US20200038513A1, “MODULATORS OF FAK PROTEOLYSIS AND ASSOCIATED METHODS OF USE” (ARVINAS OPERATIONS, INC., priority 2018, published 2020).
# Tested on: MDA-MB-231 cells
# Test: RPPA (reverse phase protein array)
# Format: cell-based, human
# Settings: 500nM
# Description: RPPA analysis was performed by MD Anderson Cancer Center RPPA core facility.
# Examination of the Molecular Signaling Events) and/or Downstream Pathways Responsible for the Migration and Invasion Effects Observed by Exemplary Compound Treatment. To pinpoint these observations to a molecular signaling event or specific downstream pathway, reverse phase protein array (RPPA) analysis was performed (Table 4).
smiles,measurement,value
"Cc1ncsc1-c1ccc(CNC(=O)[C@@H]2C[C@@H](O)CN2C(=O)[C@@H](NC(=O)CCOCCOc2ccc(Nc3ncc(C(F)(F)F)c(NCc4cccc(N(C)S(C)(=O)=O)c4)n3)cc2)C(C)(C)C)cc1 [Compound 102, (2S,4R)-1-((S)-3,3-dimethyl-2-(3-(2-(4-((4-((3-(N-methylmethylsulfonamido)benzyl)amino)-5-(trifluoromethyl)pyrimidin-2-yl)amino)phenoxy)ethoxy)propanamido)butanoyl)-4-hydroxy-N-(4-(4-methylthiazol-5-yl)benzyl)pyrrolidine-2-carboxamide]","rel. Protein level, 4E-BP1",110.6%
same,"rel. Protein level, 4E-BP1_pS65",92.3%
same,"rel. Protein level, 14-3-3-beta",100.5%
same,"rel. Protein level, 14-3-3-zeta",105.4%
same,"rel. Protein level, 53BP1",111.3%
same,"rel. Protein level, A-Raf",106.5%
same,"rel. Protein level, ACC1",103.3%
same,"rel. Protein level, ACC_pS79",95.4%
same,"rel. Protein level, ADAR1",121.2%
same,"rel. Protein level, AMPK-a2_pS345",97.2%
same,"rel. Protein level, AMPKa",105.1%
same,"rel. Protein level, AMPKa_pT172",92.7%
same,"rel. Protein level, AR",85.0%
same,"rel. Protein level, ARID1A",121.1%
same,"rel. Protein level, ATM",106.8%
same,"rel. Protein level, ATM_pS1981",99.7%
same,"rel. Protein level, ATR_pS428",99.2%
same,"rel. Protein level, Akt",101.7%
same,"rel. Protein level, Akt_pS473",74.2%
same,"rel. Protein level, Akt_pT308",94.2%
same,"rel. Protein level, Annexin-I",117.8%
same,"rel. Protein level, Annexin-VII",110.0%
same,"rel. Protein level, Atg3",98.3%
same,"rel. Protein level, Atg7",100.8%
same,"rel. Protein level, Aurora-B",92.3%
same,"rel. Protein level, Axl",94.7%
same,"rel. Protein level, B7-H4",97.5%
same,"rel. Protein level, B-Raf",110.9%
same,"rel. Protein level, B-Raf_pS445",108.0%
same,"rel. Protein level, BAP1",96.8%
same,"rel. Protein level, BRD4",118.7%
same,"rel. Protein level, Bad_pS112",102.3%
same,"rel. Protein level, Bak",100.7%
same,"rel. Protein level, Bax",110.5%
same,"rel. Protein level, Bc1-xL",97.6%
same,"rel. Protein level, Bc12",92.8%
same,"rel. Protein level, Beclin_l",100.0%
same,"rel. Protein level, BiP-GRP78",103.0%
same,"rel. Protein level, Bid",102.8%
same,"rel. Protein level, Bim",102.9%
same,"rel. Protein level, C-Raf",100.8%
same,"rel. Protein level, C-Raf_pS338",90.7%
same,"rel. Protein level, CD4",101.8%
same,"rel. Protein level, CD20",92.3%
same,"rel. Protein level, CD29",104.7%
same,"rel. Protein level, CD31",98.2%
same,"rel. Protein level, CD44",106.6%
same,"rel. Protein level, CD45",97.9%
same,"rel. Protein level, CD49b",116.5%
same,"rel. Protein level, CD134",99.0%
same,"rel. Protein level, CDK1_pT14",94.6%
same,"rel. Protein level, COG3",107.9%
same,"rel. Protein level, Caspase-3",106.7%
same,"rel. Protein level, Caspase-7-cleaved-",113.1%
same,"rel. Protein level, Caspase-8",102.4%
same,"rel. Protein level, Caveolin-1",141.0%
same,"rel. Protein level, Chk2",94.4%
same,"rel. Protein level, Chk2_pT68",103.4%
same,"rel. Protein level, Chkl",92.3%
same,"rel. Protein level, Chkl_pS296",96.6%
same,"rel. Protein level, Claudin-7",101.6%
same,"rel. Protein level, Collagen-VI",93.4%
same,"rel. Protein level, Connexin-43",92.3%
same,"rel. Protein level, Cox2",171.3%
same,"rel. Protein level, Cox-IV",104.5%
same,"rel. Protein level, Creb",103.4%
same,"rel. Protein level, Cyclin-B1",96.7%
same,"rel. Protein level, Cyclin-D1",105.2%
same,"rel. Protein level, Cyclin-D3",94.7%
same,"rel. Protein level, Cyclin-E1",110.5%
same,"rel. Protein level, Cyclophilin-F",97.6%
same,"rel. Protein level, D-a-Tubulin",95.2%
same,"rel. Protein level, DJ1",103.5%
same,"rel. Protein level, DM-Histone-H3",108.5%
same,"rel. Protein level, DM-K9-Histone-H3",111.9%
same,"rel. Protein level, DUSP4",142.6%
same,"rel. Protein level, E2F1",98.2%
same,"rel. Protein level, E-Cadherin",92.7%
same,"rel. Protein level, EGFR",98.2%
same,"rel. Protein level, EGFR_pY1173",101.5%
same,"rel. Protein level, EMA",109.4%
same,"rel. Protein level, ENY2",95.1%
same,"rel. Protein level, ER",98.1%
same,"rel. Protein level, ER-a_pS118",109.9%
same,"rel. Protein level, ERCC1",93.6%
same,"rel. Protein level, ERCC5",103.3%
same,"rel. Protein level, Elk1_pS383",97.5%
same,"rel. Protein level, Ets-1",97.7%
same,"rel. Protein level, FAK",55.4%
same,"rel. Protein level, FAK_pY397",86.4%
same,"rel. Protein level, FASN",92.6%
same,"rel. Protein level, FOXM1",92.4%
same,"rel. Protein level, Fibronectin",103.9%
same,"rel. Protein level, FoxO3a",100.5%
same,"rel. Protein level, FoxO3a_pS318_S321",96.0%
same,"rel. Protein level, G6PD",97.7%
same,"rel. Protein level, GAPDH",99.4%
same,"rel. Protein level, GATA3",97.2%
same,"rel. Protein level, GATA-6",99.4%
same,"rel. Protein level, GCLM",99.9%
same,"rel. Protein level, GCN5L2",99.4%
same,"rel. Protein level, GSK-3a-b",107.2%
same,"rel. Protein level, GSK-3a-b_pS21_S9",97.0%
same,"rel. Protein level, Gab2",100.5%
same,"rel. Protein level, Glutamate-D1-2",95.5%
same,"rel. Protein level, Glutaminase",111.5%
same,"rel. Protein level, Granzyme-B",101.4%
same,"rel. Protein level, Gys",111.6%
same,"rel. Protein level, Gys_pS641",105.2%
same,"rel. Protein level, H2AX_pS140",117.7%
same,"rel. Protein level, HER2",106.9%
same,"rel. Protein level, HER2_pY1248",97.5%
same,"rel. Protein level, HER3",102.8%
same,"rel. Protein level, HER3_pY1289",96.9%
same,"rel. Protein level, HES1",92.3%
same,"rel. Protein level, HLA-DR-DP-DQ-DX",101.7%
same,"rel. Protein level, HSP27",96.5%
same,"rel. Protein level, HSP27_pS82",95.4%
same,"rel. Protein level, HSP70",105.2%
same,"rel. Protein level, Heregulin",113.3%
same,"rel. Protein level, Hexokinase-II",99.4%
same,"rel. Protein level, Hif-l-alpha",130.8%
same,"rel. Protein level, Histone-H3",131.4%
same,"rel. Protein level, IGF1R_pY1135_Y1136",97.2%
same,"rel. Protein level, IGFBP2",89.0%
same,"rel. Protein level, IGFRb",98.5%
same,"rel. Protein level, INPP4b",98.0%
same,"rel. Protein level, IR-b",111.4%
same,"rel. Protein level, IRF-1",111.6%
same,"rel. Protein level, IRS1",101.4%
same,"rel. Protein level, JNK2",103.8%
same,"rel. Protein level, JNK_pT183_Y185",98.5%
same,"rel. Protein level, Jagged1",111.0%
same,"rel. Protein level, Jak2",107.2%
same,"rel. Protein level, LC3A-B",106.5%
same,"rel. Protein level, LDHA",123.8%
same,"rel. Protein level, LRP6_pS1490",128.4%
same,"rel. Protein level, Lck",96.8%
same,"rel. Protein level, MAPK_pT202-Y204",93.7%
same,"rel. Protein level, MCT4",126.7%
same,"rel. Protein level, MDM2_pS166",94.8%
same,"rel. Protein level, MEK1",106.4%
same,"rel. Protein level, MEK1_p_S217-S221",95.0%
same,"rel. Protein level, MERIT40_pS29",92.3%
same,"rel. Protein level, MIF",107.4%
same,"rel. Protein level, MIG6",106.7%
same,"rel. Protein level, MMP2",103.9%
same,"rel. Protein level, MMP14-[EP1264Y]",137.5%
same,"rel. Protein level, MMP-14",120.9%
same,"rel. Protein level, MSH6",97.8%
same,"rel. Protein level, MSI2",93.5%
same,"rel. Protein level, Mcl-1",89.4%
same,"rel. Protein level, Merlin",94.1%
